{"source": "paper PMC5004205", "about": "“Spiro[pyrrolidine-3, 3´-oxindole] as potent anti-breast cancer compounds: Their design, synthesis, biological evaluation and cellular target identification” (Scientific Reports, 2016)", "key": {"MCF-7 cells [1]": {"system": "MCF-7 cells", "experiment": "Annexin V/propidium iodide FACS assay", "type": "cell-based", "method": "The assay is based on the ability of the protein annexin V to bind to phosphatidylserine (PS) exposed on the outer membrane leaflet in apoptotic cells (PS also appears on the necrotic cell surface). The annexin V assay was performed following the manufacturer’s instructions (Annexin V-FITC kit,Alexa Fluor). Briefly, the cells were washed with PBS and suspended in pre-diluted binding buffer. The cell density was adjusted to 2 million and 195 μl of cell suspension were mixed with 5 μl Annexin V-FITC and incubated for 10 min in the dark at room temperature. The cells were washed with binding buffer, re-suspended in 195 μl binding buffer, counterstained with 10 μl of the 20 μg/ml propidium iodide stock (final concentration 1 μg/ml) and the data were acquired by BD FACS diva 7.0 at 6 h, 12 h and 24 h."}, "MCF-7 cells [2]": {"system": "MCF-7 cells", "experiment": "Cell migration (scratch) assay", "type": "cell-based", "conditions": "24 hours, compared to untreated cells", "method": "MCF-7 cells were grown to confluence in six-well tissue culture plastic dishes to a density of ∼0.2 million cells/well. After 24 hrs of seeding, cells were treated with chemical compounds. The medium was removed and the cells were scratched by 200 μL pipette micro tip through the center of the plate. The cultures were washed to remove debris and re-cultured with DMEM containing 10% FBS for cell migration. The cells were imaged at 24 hrs and the migrated distance was measured. Migration rate was calculated by counting five to seven fields per image and the results presented as the average of three independent experiments performed over multiple days."}, "[3]": {"system": "MCF-7 breast cancer cells", "experiment": "MTT colorimetric cell viability assay, MCF-7", "type": "cell-based", "conditions": "for CTRL-TST/CTRL*100 (inhibition) MCF-7: EC50 plate", "method": "MCF-7 cells were maintained as monolayer in 25 cm^2 culture flasks (T-25) at 37 °C in DMEM medium (GIBCO, St. Louis, USA) supplemented with high glucose, L-glutamine, pyridoxine hydrochloride, 110 mg/L sodium pyruvate, 3.7 g/L NaHCO3 and antibiotics (Penicillin-10,000 units/mL, Streptomycin −10,000 μg/mL, GIBCO, USA). Growth medium (pH 7.4) was prepared by adding 5% heat inactivated FBS (Fetal Bovine Serum, GIBCO, USA) and stored at 4 °C. The medium was changed 10–18 hrs prior to experiment, and cells were confluent at the time of experimentation. Cells were dislodged from flasks by gentle trypsinization containing 0.25% Trypsin. MCF-7 cells were regularly sub-cultured thrice a week in a seeding density of 40,000–50,000 cells/cm^2area. Cell confluency = 70%\nThe MTT colorimetric viability assay was performed to evaluate the anticancer effect of compounds. 30,000 cells/100 μl of media were seeded per well and allowed to stretch and adhere overnight at 37 °C. Following day media was removed and 100 μl fresh media was added to the grown cells. […] There was one positive and one negative control along with 13 compounds. The results were measured all in triplicate in 45 wells of 96 well plate at each time point. Cytotoxic effect was evaluated using ability of live cells to cleave MTT ((3-[4, 5- dimethylthiazol-2-yl]-2, 5-diphenyl tetrazolium bromide)) (Sigma-Aldrich, St Louis, MO, USA), into formazan crystals. Post 48 hours of treatment, 10 μl of MTT (5 mg/ml in PBS) was added to the cells and incubated for 4 hours in dark at 37 °C. The violet colored crystals formed were then dissolved in 100 μl DMSO solvent (Dimethyl Sulfoxide, Sigma-Aldrich, St. Louis, MO, USA). The colorimetric assay was read by a MultiMode Plate Reader (Bio-Rad) at 595 nm. Percentage of Inhibition of drug was calculated by following formula:\nO.D1 O.D2 O.D3 AVG CTRL-TST CTRL-TST/CTRL*100 stdev"}, "MCF-7 cell lysate": {"system": "MCF-7 cell lysate", "experiment": "Chemical proteomics target deconvolution with polymer-immobilized 5l", "type": "binding, Human", "conditions": "differential proteins common to three experiments, MS", "method": "5l was provided as a lyophilized powder. A 100 mM stock of 5l was made in DMSO. The stock solution was diluted to 215 μM in 1 mM of phosphate buffer in pH 6.0 and incubated with the matrix for 16 hrs at room temperature. After incubation, the matrix was washed five times with Phosphate buffer. The amount of molecule in the phosphate buffer wash was quantified by HPLC-UV based method and amount of molecule retained on the matrix was calculated.\nCell lysates were prepared in RIPA buffer and protein concentration was determined by Bradford method. Cell lysate was diluted with 1X TBS to a concentration of 1 mg/ml. The 5l immobilized matrix was incubated with 2 ml of cell lysate for 2 min with mild shaking. The matrix was washed with 1X TBS to remove unbound proteins and to reduce non-specific interactions. The molecule bound proteins were then recovered by acetone precipitation and was dissolved in 1X sample buffer. Proteins were separated on a 4–12% gradient gel and bands were digested by standard “in-gel” trypsin digestion methods. […]\nAgilent Mass Hunter software was used for data acquisition and analysis of Total ion chromatograms. […] The peptide sequence was also analysed for variable modifications such as methionine oxidation, acetylation, cysteine sulfoxide, deamidation and pyro glutamic acid modification."}}, "data": [{"smiles": "O=C1Nc2ccccc2C12CCNC2c1ccccc1", "note": "(stereo not shown) [Compound 5l]", "values": [{"measurement": "Mode of cell death by Annexin-PI FACS", "setting": "MCF-7 cells [1]", "value": "necrosis was also confirmed"}, {"measurement": "Inhibition of cell migration of MCF-7 cells", "setting": "MCF-7 cells [2]", "value": "inhibit cell migration"}, {"measurement": "CTRL-TST/CTRL*100 (inhibition) MCF-7", "setting": "[3]; concentration row 10", "value": 24.36}, {"measurement": "CTRL-TST/CTRL*100 (inhibition) MCF-7", "setting": "[3]; concentration row 20", "value": 33.4492}, {"measurement": "CTRL-TST/CTRL*100 (inhibition) MCF-7", "setting": "[3]; concentration row 30", "value": 48.26}, {"measurement": "CTRL-TST/CTRL*100 (inhibition) MCF-7", "setting": "[3]; concentration row 40", "value": 62.51}, {"measurement": "CTRL-TST/CTRL*100 (inhibition) MCF-7", "setting": "[3]; concentration row 50", "value": 66.98}, {"measurement": "EC50", "setting": "[3]; Homo sapiens, MCF7, MTT, mean of three experiments", "value": 3.5, "unit": "µM"}, {"measurement": "inhibition at 50 µM", "setting": "[3]; Homo sapiens, MCF7, 50 μM, 48 hours, MTT, triplicates, read-out: Percentage inhibition MCF-7", "value": "60.96 ± 0.09", "unit": "%"}, {"measurement": "Putative cellular binding targets", "setting": "MCF-7 cell lysate", "value": "HDAC2 and Prohibitin 2 are considered top priority targets"}]}]}
